From patent US20250188057A1, “NON-AROMATIC CYCLIC-PYRIMIDINE ANALOGS AS GLUCOSYLCERAMIDE SYNTHASE INHIBITORS” (Merck Sharp & Dohme LLC, priority 2022, published 2025)

Experiments:
[1] = test system: GD and PD patient-derived induced pluripotent stem cell (iPSC) neurons; conditions: Zunke, F. et al., Neuron 2018; cited from earlier work
[2] = molecular target: glucosylceramide synthase (GCS) (Homo sapiens (Human), UniProt Q16739); assay: UDP-Glo glucosylceramide synthase biochemical assay; conditions: endogenous GCS in Golgi preparations isolated from human A375 malignant melanoma skin cells; UDP detection by luminescence
glucosylceramide synthase (GCS), sequence (Q16739 whole entry): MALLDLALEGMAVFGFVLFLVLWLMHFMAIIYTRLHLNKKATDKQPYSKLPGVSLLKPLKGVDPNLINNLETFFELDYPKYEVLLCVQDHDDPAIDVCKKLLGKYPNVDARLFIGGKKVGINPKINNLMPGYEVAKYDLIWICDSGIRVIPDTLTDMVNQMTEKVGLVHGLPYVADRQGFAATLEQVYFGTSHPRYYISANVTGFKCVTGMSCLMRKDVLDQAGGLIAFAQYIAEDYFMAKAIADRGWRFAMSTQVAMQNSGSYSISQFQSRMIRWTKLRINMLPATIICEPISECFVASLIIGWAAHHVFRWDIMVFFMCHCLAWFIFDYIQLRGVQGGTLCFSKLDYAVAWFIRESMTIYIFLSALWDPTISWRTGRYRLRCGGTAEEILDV
Procedure, shortened: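 Endogenous GCS in A375 Golgi preparations (1.5 μg total protein) was preincubated with compound for 30 min at RT, then reacted with UDP-glucose and ceramide for 20 h at RT. UDP was detected by luciferase luminescence, normalized to DMSO and reference-inhibitor controls, with EC50 and % Emax from a 4PL fit.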

IC50 [2] [nM]	SMILES	formation of pathological α-synuclein aggregates [1]
	CCCCCCCC(=O)N[C@H](CN1CCCC1)[C@H](O)c1ccc2c(c1)OCCO2 [eliglustat, Eliglustat]	reverse the formation of pathological α-synuclein aggregates
352	N#Cc1cnc(C2CC2)nc1N1C[C@@H]2C[C@H]1CN2Cc1ccc(Cl)cc1 [Compound 89, 4-((1S,4S)-5-(4-chlorobenzyl)-2,5-diazabicyclo[2.2.1]heptan-2-yl)-2-cyclopropylpyrimidine-5-carbonitrile]	
303	COC(=O)C[C@@H]1COc2cc(OC3CN(c4nc(C5CC5)ncc4C#N)C3)ccc21 [Compound 80, methyl (S)-2-(6-((1-(5-cyano-2-cyclopropylpyrimidin-4-yl)azetidin-3-yl)oxy)-2,3-dihydrobenzofuran-3-yl)acetate]	
568	OCc1cnc(C2CC2)nc1OC[C@@H]1CCN(c2ccc(C(F)(F)F)nc2)C1 [Compound 2, (R)-(2-cyclopropyl-4-((1-(6-(trifluoromethyl)pyridin-3-yl)pyrrolidin-3-yl)methoxy)pyrimidin-5-yl)methanol]	
2870	Cc1nc(N2CC(c3nc4ccccc4[nH]3)C2)cc(N2CC(CC(C)C)CC2=O)n1 (stereo not shown) [Compound 118, 1-(6-(3-(1H-benzo[d]imidazol-2-yl)azetidin-1-yl)-2-methylpyrimidin-4-yl)-4-isobutylpyrrolidin-2-one]	
655	CCNC(=O)[C@]12CN(c3nc(C4CC4)ncc3C#N)C[C@H]1C(Oc1ccccc1)=NO2 [Compound 77, (3aR)-5-(5-cyano-2-cyclopropylpyrimidin-4-yl)-N-ethyl-3-phenoxy-3a,4,5,6-tetrahydro-6aH-pyrrolo[3,4-b]isoxazole-6a-carboxamide]	
354	N#Cc1cnc(C2CC2)nc1OC[C@H]1CCN(c2cccc(-n3nccn3)c2)C1 [Compound 20, (S)-4-((1-(3-(2H-1,2,3-triazol-2-yl)phenyl)pyrrolidin-3-yl)methoxy)-2-cyclopropylpyrimidine-5-carbonitrile]	
1330	N#Cc1cnc(C2CC2)nc1OCC1CCCN1Cc1ccccc1Cl (stereo not shown) [Compound 106, 4-((1-(2-chlorobenzyl)pyrrolidin-2-yl)methoxy)-2-cyclopropylpyrimidine-5-carbonitrile]	
35	N#Cc1cnc(C2CC2)nc1OC[C@H]1CCN(c2ccc(-c3ncco3)cc2)C1 [Compound 11, (S)-2-cyclopropyl-4-((1-(4-(oxazol-2-yl)phenyl)pyrrolidin-3-yl)methoxy)pyrimidine-5-carbonitrile]	
971	Cc1nc2c(s1)C(Oc1nc(C3CC3)ncc1C#N)CCC2 (stereo not shown) [Compound 126, 2-cyclopropyl-4-((2-methyl-4,5,6,7-tetrahydrobenzo[d]thiazol-7-yl)oxy)pyrimidine-5-carbonitrile]	
1090	N#Cc1cnc(C2CC2)nc1N1CCC2(CC1)NC(=O)Nc1ccccc12 [Compound 75, 2-cyclopropyl-4-(2′-oxo-2′,3′-dihydro-1′H-spiro[piperidine-4,4′-quinazolin]-1-yl)pyrimidine-5-carbonitrile]	
422	Cc1nc2c(s1)CCCC2Nc1nc(C2CC2)nc(C)c1C#N (stereo not shown) [Compound 124, 2-cyclopropyl-4-methyl-6-((2-methyl-4,5,6,7-tetrahydrobenzo[d]thiazol-4-yl)amino)pyrimidine-5-carbonitrile]	
3090	N#Cc1cnc(C2CC2)nc1OC[C@H]1CCN(c2ccnc(OC3CC3)c2)C1 [Compound 47, (S)-4-((1-(2-cyclopropoxypyridin-4-yl)pyrrolidin-3-yl)methoxy)-2-cyclopropylpyrimidine-5-carbonitrile]	
